Counter-ions that a name gives are not always drawn.
target: T1, MASP-2 (CCP1-CCP2-SP) (Homo sapiens, UniProt O00187); test: Enzymatic Assay for MASP-2 (fluorogenic substrate); type: biochemical; settings: fluorogenic substrate based on C2 cleavage site; room temperature, 20 min; 20 mM HEPES pH 7.4, 140 mM NaCl, 0.1% Tween 20
T1 construct: 15 μL of Enzyme MASP-2 (CCP1-CCP2-SP) in Assay Buffer
Procedure, shortened: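 Fluorogenic substrate built on the C2 cleavage site, in 20 mM HEPES pH 7.4, 140 mM NaCl, 0.1% Tween 20, run at room temperature for 20 min before an acetic acid stop. Fluorescence normalised to DMSO-only and no-enzyme controls; IC50 taken as equivalent to Ki, with tight- or slow-binding inhibitors treated separately.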

T1 sequence (O00187 445-686 limits assumed): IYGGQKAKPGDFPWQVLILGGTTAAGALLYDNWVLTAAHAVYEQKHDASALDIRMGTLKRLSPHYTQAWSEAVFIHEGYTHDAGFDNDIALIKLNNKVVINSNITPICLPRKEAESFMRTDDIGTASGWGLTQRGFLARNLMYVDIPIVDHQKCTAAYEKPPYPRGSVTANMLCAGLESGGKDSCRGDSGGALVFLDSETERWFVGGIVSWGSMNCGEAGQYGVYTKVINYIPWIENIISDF
T1 sequence (O00187 298-444 partner limits assumed): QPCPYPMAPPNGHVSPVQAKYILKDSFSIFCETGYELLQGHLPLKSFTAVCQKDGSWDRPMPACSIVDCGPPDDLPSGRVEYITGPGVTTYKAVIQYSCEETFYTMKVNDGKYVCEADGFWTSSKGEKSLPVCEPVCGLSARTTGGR

Ki, < 500 nM:
Cc1nc(N)ccc1CNC(=O)[C@@H]1CCN1C(=O)[C@H]1C[C@@H](c2cccc(-c3ccccc3)c2)CCN1 [Compound I-65, (S)-1-((2R,4S)-4-([1,1′-Biphenyl]-3-Yl)Piperidine-2-Carbonyl)-N-((6-Amino-2-Methylpyridin-3-Yl)Methyl)Azetidine-2-Carboxamide Di-Trifluoroacetate]
N=C(N)c1ccc(CNC(=O)[C@@H]2CCN2C(=O)[C@H]2C[C@@H](c3ccccc3)CCN2)cc1 [Compound I-66, (S)—N-(4-Carbamimidoylbenzyl)-1-((2R,4S)-4-Phenylpiperidine-2-Carbonyl)Azetidine-2-Carboxamide Trifluoroacetate]
C[C@H](NC(=O)[C@H]1C[C@@H](c2ccc(F)cc2)CCN1)C(=O)NCc1ccc(C(=N)N)cc1 [Compound I-67]
C[C@H](NC(=O)[C@H]1C[C@@H](c2cccc(-c3ccccc3)c2)CCN1)C(=O)NCc1ccc(C(=N)N)cc1 [Compound I-68, (2R,4S)-4-([1,1′-Biphenyl]-3-Yl)-N—((S)-1-((4-Carbamimidoylbenzyl)Amino)-1-Oxopropan-2-Yl)Piperidine-2-Carboxamide Di-Trifluoroacetate]
C[C@H](NC(=O)[C@H]1C[C@@H](c2ccc(-c3ccccc3)cc2)CCN1)C(=O)NCc1ccc(C(=N)N)cc1 [Compound I-69, (2R,4S)-4-([1,1′-Biphenyl]-4-Yl)-N—((S)-1-((4-Carbamimidoylbenzyl)Amino)-1-Oxopropan-2-Yl)Piperidine-2-Carboxamide Di-Trifluoroacetate]
C[C@H](NC(=O)[C@H]1C[C@@H](c2ccc3ccccc3c2)CCN1)C(=O)NCc1ccc(C(=N)N)cc1 [Compound I-70, (2R,4S)—N—((S)-1-((4-Carbamimidoylbenzyl)Amino)-1-Oxopropan-2-Yl)-4-(Naphthalen-2-Yl)Piperidine-2-Carboxamide Di-Trifluoroacetate]
C[C@H](NC(=O)[C@H]1C[C@@H](c2cc3ccccc3s2)CCN1)C(=O)NCc1ccc(C(=N)N)cc1 [Compound I-71, (2R,4S)-4-(Benzo[B]Thiophen-2-Yl)-N—((S)-1-((4-Carbamimidoylbenzyl)Amino)-1-Oxopropan-2-Yl)Piperidine-2-Carboxamide Di-Trifluoroacetate]
C[C@H](NC(=O)[C@H]1C[C@@H](c2ccc(-c3cccnc3)cc2)CCN1)C(=O)NCc1ccc(C(=N)N)cc1 [Compound I-72, (2R,4S)—N—((S)-1-((4-Carbamimidoylbenzyl)Amino)-1-Oxopropan-2-Yl)-4-(4-(Pyridin-3-Yl)Phenyl)Piperidine-2-Carboxamide Di-Trifluoroacetate]
C[C@H](NC(=O)[C@H]1C[C@@H](c2ccc(-c3cccnc3)cc2)CCN1)C(=O)NCc1cc2cnccc2[nH]1 [Compound I-73, (2R,4S)—N—((S)-1-(((1H-Pyrrolo[3,2-C]Pyridin-2-Yl)Methyl)Amino)-1-Oxopropan-2-Yl)-4-(4-(Pyridin-3-Yl)Phenyl)Piperidine-2-Carboxamide Tri-Trifluoroacetate]
C[C@H](NC(=O)[C@H]1C[C@@H](c2ccc(-c3ccccc3)cc2)CCN1)C(=O)NCc1cc2cnccc2[nH]1 [Compound I-74, (2R,4S)—N—((S)-1-(((1H-Pyrrolo[3,2-C]Pyridin-2-Yl)Methyl)Amino)-1-Oxopropan-2-Yl)-4-([1,1′-Biphenyl]-4-Yl)Piperidine-2-Carboxamide Di-Trifluoroacetate]
Cc1cc(C)n(-c2ccc([C@H]3CCN[C@@H](C(=O)N[C@@H](C)C(=O)NCc4ccc(C(=N)N)cc4)C3)cc2)n1 [Compound I-75, (2R,4S)—N—((S)-1-((4-Carbamimidoylbenzyl)Amino)-1-Oxopropan-2-Yl)-4-(4-(3,5-Dimethyl-1H-Pyrazol-1-Yl)Phenyl)Piperidine-2-Carboxamide Dihydrochloride]
C[C@H](NC(=O)[C@H]1C[C@@H](c2ccc(N3CCOCC3)cc2)CCN1)C(=O)NCc1ccc(C(=N)N)cc1 [Compound I-76, (2R,4S)—N—((S)-1-((4-Carbamimidoylbenzyl)Amino)-1-Oxopropan-2-Yl)-4-(4-Morpholinophenyl)Piperidine-2-Carboxamide Dihydrochloride]
C[C@H](NC(=O)[C@H]1C[C@@H](c2cccc(-n3cccn3)c2)CCN1)C(=O)NCc1ccc(C(=N)N)cc1 [Compound I-77, (2R,4S)-4-(3-(1H-Pyrazol-1-Yl)Phenyl)-N—((S)-1-((4-Carbamimidoylbenzyl)Amino)-1-Oxopropan-2-Yl)Piperidine-2-Carboxamide Dihydrochloride]
Cc1nc(N)ccc1CNC(=O)[C@H](C)NC(=O)[C@H]1C[C@@H](c2cccc(-n3cccn3)c2)CCN1 [Compound I-78, (2R,4S)-4-(3-(1H-Pyrazol-1-Yl)Phenyl)-N—((S)-1-(((6-Amino-2-Methylpyridin-3-Yl)Methyl)Amino)-1-Oxopropan-2-Yl)Piperidine-2-Carboxamide Dihydrochloride]
C[C@H](NC(=O)[C@H]1C[C@@H](c2cccc(-n3cccn3)c2)CCN1)C(=O)NCc1cc(Cl)ccc1-n1cnnn1 [Compound I-79, (2R,4S)-4-(3-(1H-Pyrazol-1-Yl)Phenyl)-N—((S)-1-((5-Chloro-2-(1H-Tetrazol-1-Yl)Benzyl)Amino)-1-Oxopropan-2-Yl)Piperidine-2-Carboxamide Dihydrochloride]
C[C@H](NC(=O)[C@H]1C[C@@H](c2cccc(-n3cccn3)c2)CCN1)C(=O)NCc1cc2cnccc2[nH]1 [Compound I-80, (2R,4S)-4-(3-(1H-Pyrazol-1-Yl)Phenyl)-N—((S)-1-(((1H-Pyrrolo[3,2-C]Pyridin-2-Yl)Methyl)Amino)-1-Oxopropan-2-Yl)Piperidine-2-Carboxamide Dihydrochloride]
Cc1nc(N)ccc1CNC(=O)[C@H](C)NC(=O)[C@H]1C[C@H](Cc2cccc(-c3ccc(F)cc3)c2)CN1 [Compound I-81, (2R,4S)—N—((S)-1-(((6-Amino-2-Methylpyridin-3-Yl)Methyl)Amino)-1-Oxopropan-2-Yl)-4-((4′-Fluoro-[1,1′-Biphenyl]-3-Yl)Methyl)Pyrrolidine-2-Carboxamide Di-Trifluoroacetate]
C[C@H](NC(=O)[C@H]1C[C@H](Cc2cccc(Cl)c2)CN1)C(=O)NCc1cnc2[nH]cc(Cl)c2c1 [Compound I-82, (2R,4S)—N—((S)-1-(((3-Chloro-1H-Pyrrolo[2,3-B]Pyridin-5-Yl)Methyl)Amino)-1-Oxopropan-2-Yl)-4-(3-Chlorobenzyl)Pyrrolidine-2-Carboxamide Dihydrochloride]
C[C@H](NC(=O)[C@H]1C[C@H](Cc2ccc(Cl)s2)CN1)C(=O)NCc1cnc2[nH]cc(Cl)c2c1 [Compound I-83, (2R,4R)—N—((S)-1-(((3-Chloro-1H-Pyrrolo[2,3-B]Pyridin-5-Yl)Methyl)Amino)-1-Oxopropan-2-Yl)-4-((5-Chlorothiophen-2-Yl)Methyl)Pyrrolidine-2-Carboxamide Dihydrochloride]
